# Test system: rat adipocytes
# Test: Activation of lipogenesis in rat adipocytes
# Format: cell-based
# Conditions: insulin 1 nM; twenty independent lipogenesis assays
# Method: This was carried out on adipocytes isolated from the epididymal fat pads of young rats. Briefly adipocytes from two rat epididymial fat pads were suspended in 8 ml of Krebs Ringer bicarbonate and 250 μL of the cell suspension was incubated at 37° C. for two hours in Krebs Ringer bicarbonate, containing 1% albumin and 5 mM [U-^14C]-glucose (1 μCi/sample) with or without insulin (1 nM) or 10 μL of IPG solutions. The rate of incorporation of uniformly labelled glucose into fatty acids was used as a measure of lipogenesis.
substance,measurement,value
Insulin,Lipogenesis (lipogenic activity),5160 ± 310 (n-20) milliunits/g liver

# Source: patent US20010039027A1, “Cyclitol containing carbohydrates from human tissue which regulate lipogenic activity” (priority 1996, published 2001)
